Results from patent publication US8487001B2, “Medium-chain length fatty acids, glycerides and analogues as neutrophil survival and activation factors” (ProMetic BioSciences Inc., priority 2001, dated 2013).

Legend:
B16F10 melanoma = experiment: Antitumor activity in B16F10 melanoma model; format: in vivo, C57BL/6 mice; details: FIG. 10; MCT 25 μMole/mouse i.v. day 7, 9, 14, 16; doxorubicin 10 mg/kg day 10 and 17 (sub-therapeutic); day 22
Method: Female 6-8-week old C57BL/6 mice were injected intravenously on day 0 with 1×10^5 B16F10 melanoma cells from ATCC (source of cell culture, Dr. I. J. Fidler). […] Mice were sacrificed on day 22. Body weight and tumor volume were recorded.

neutrophils (PMN) = experiment: Doxorubicin-induced neutrophil apoptosis, 4 hr incubation with or without MCT; format: cell-based, human
Method: (§1) PMN were isolated as described in example 10. Cells (2×10^6/ml) were incubated for 4 hr, at 37° C. in 5% CO2 and 95% humidity in the presence of various concentrations of a chemotherapeutic agent, doxorubicin. Apoptotic cells were evaluated as described in example 10. Data are expressed in percent of apoptotic cells.
as §1, with “doxorubicin with or without MCT (2.5% and 5.0%).” for “a chemotherapeutic agent, doxorubicin.”
Results are expressed in percent of apoptotic cells after 4 hr of incubation in the presence or the absence of doxorubicin with or without MCT. […] However, in the presence of MCT, at a concentration of 2.5% and 5% (v/v), the apoptotic effects of doxorubicin are inhibited. Thus, MCT exerts an anti-apoptotic action on PMN. Apoptosis was also studied using the annexin V-FITC/PI (propidium iodide) to method according to the manufacturer's Biosources recommendations (Apotarget Annexin-VFITC Apoptosis Kit #PHN 1018). Annexin V binds to phosphatidylserine which is transferred from the internal to external membrane in early to late phase apoptosis. Briefly, neutrophils are incubated in the presence or absence of varying concentrations of doxorubicin and MCT. After 24 hr, neutrophils are washed with PBS and stained with […] of Annexin V-FITC and 10 μl of PI (Sigma, 1 mg/ml) for 20 minutes. After incubation, stained cells were fixed in paraformaldehyde (1%) and analyzed for apoptosis using an XL Flow Cytometer (Coulter). Data were then expressed as the percent of apoptotic cells. FIG. 4A represents a time-course response of MCT on doxorubicin-treated neutrophils.

[1] = Doxorubicin-induced neutrophil apoptosis, comparison to GM-CSF (% PMN viability); format: cell-based, human; details: human
Text: Table 2 represents the effect of GM-CSF, MCT and tricaprylin on doxorubicin-induced human neutrophil apoptosis.

## COc1cccc2c1C(=O)c1c(O)c3c(c(O)c1C2=O)C[C@@](O)(C(=O)CO)C[C@@H]3O[C@H]1C[C@H](N)[C@H](O)[C@H](C)O1 [Doxorubicin, doxorubicin]
B16F10 melanoma
  reduction of the tumor volume: around 25%
Neutrophils (PMN); Experiment 1, doxorubicin 10^-4 M alone (Control, no MCT)
  % Apoptosis of neutrophils (PMN): 27.5%
Neutrophils (PMN); Experiment 1, doxorubicin 10^-5 M alone (Control, no MCT)
  % Apoptosis of neutrophils (PMN): 23.8%
Neutrophils (PMN); Experiment 1, doxorubicin 10^-6 M alone (Control, no MCT)
  % Apoptosis of neutrophils (PMN): 23.2%
Neutrophils (PMN); Experiment 1, doxorubicin 10^-8 M alone (Control, no MCT)
  % Apoptosis of neutrophils (PMN): 18.7%
Neutrophils (PMN); Experiment 1, doxorubicin 10^-10 M alone (Control, no MCT)
  % Apoptosis of neutrophils (PMN): 9.3%
Neutrophils (PMN); Experiment 2, doxorubicin 10^-4 M alone (Control, no MCT)
  % Apoptosis of neutrophils (PMN): 53.2%
Neutrophils (PMN); Experiment 2, doxorubicin 10^-5 M alone (Control, no MCT)
  % Apoptosis of neutrophils (PMN): 66.2%
Neutrophils (PMN); Experiment 2, doxorubicin 10^-6 M alone (Control, no MCT)
  % Apoptosis of neutrophils (PMN): 55.0%
Neutrophils (PMN); Experiment 2, doxorubicin 10^-8 M alone (Control, no MCT)
  % Apoptosis of neutrophils (PMN): 59.2%
Neutrophils (PMN); Experiment 2, doxorubicin 10^-10 M alone (Control, no MCT)
  % Apoptosis of neutrophils (PMN): 60.6%
Neutrophils (PMN); various concentrations of doxorubicin, FIGS. 3A and 3B
  effect on PMN apoptosis: induces PMN apoptosis
[1]
  viability: 6.82 ± 0.5%
